For orientation: IC50 means the point on the concentration scale where inhibition reaches its midpoint.

T1 sequence (O42275 24-633): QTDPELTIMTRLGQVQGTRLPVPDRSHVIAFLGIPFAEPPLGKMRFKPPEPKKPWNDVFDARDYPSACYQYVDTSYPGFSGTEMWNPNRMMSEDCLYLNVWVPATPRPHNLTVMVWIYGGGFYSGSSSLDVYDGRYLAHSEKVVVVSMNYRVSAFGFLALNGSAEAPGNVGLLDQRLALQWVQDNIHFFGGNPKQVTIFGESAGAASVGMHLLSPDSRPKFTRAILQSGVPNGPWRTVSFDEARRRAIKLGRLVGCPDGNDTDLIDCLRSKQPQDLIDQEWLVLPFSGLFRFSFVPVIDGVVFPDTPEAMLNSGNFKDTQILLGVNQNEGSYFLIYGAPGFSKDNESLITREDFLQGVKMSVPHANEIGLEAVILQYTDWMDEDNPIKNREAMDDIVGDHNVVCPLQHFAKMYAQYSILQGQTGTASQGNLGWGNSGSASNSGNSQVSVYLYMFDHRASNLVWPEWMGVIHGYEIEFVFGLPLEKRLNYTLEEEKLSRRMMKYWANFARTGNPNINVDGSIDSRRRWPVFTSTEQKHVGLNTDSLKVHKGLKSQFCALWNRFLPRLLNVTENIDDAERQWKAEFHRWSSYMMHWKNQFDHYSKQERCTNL

The experiment addresses T1, AChE enzyme from electrophorus electricus (eeAChE) (Electrophorus electricus, UniProt O42275).
T1 construct: purchased Merck C3389
Kind of experiment: biochemical. The following applies: mean ± SEM from three independent experiments. On the procedure: Donepezil was used as a positive control.
AChE activity was measured by the […] using AChE enzyme from electrophorus electricus (eeAChE) (C3389, Merck, Kenilworth, NJ, USA). AChE solution (2 U/mL) was prepared with 0.1 M phosphate buffer (pH 8.0) firstly. Varied concentrations of test compounds (20 μL), 1 mM 5′-dithiobis (2-nitrobenzoic acid) (DTNB) solution (100 μL), and AChE solution (40 μL) were added in order to each well of a 96-well plate. After incubation for 15 min at 37 °C, the reaction was initiated by adding 20 μL of acetylthiocholine iodide (1 mM) to the mixed solution. The absorbance of each plate was instantly measured at 405 nm using a microplate reader. The inhibition of each compound was estimated using the formula (1−Ai/Ac) × 100, where Ai and Ac represent the absorbance of AChE in the presence and absence of inhibitors, respectively. Each experiment was replicated three times. Plotting curves of log concentration via percentage of inhibition, the IC50 values of all tested compounds were graphically analyzed (Graph Pad Prism 8.0).
The molecule `COc1cc2c(cc1OC)C(=O)/C(=C/c1cc[n+](Cc3cccc(Br)c3)cc1C(N)=O)OC2` [13i, (Z)-1-(3-Bromobenzyl)-3-carbamoyl-4-((6,7-dimethoxy-4-oxoisochroman-3-ylidene)methyl)pyridin-1-ium Bromide] returned a 50% inhibitory concentration (IC50) of 0.0381 ± 0.00092 µM.

For the molecule `COc1cc2c(cc1OC)C(=O)/C(=C/c1cc[n+](Cc3ccc(Br)cc3)cc1C(N)=O)OC2` [13j, (Z)-1-(4-Bromobenzyl)-3-carbamoyl-4-((6,7-dimethoxy-4-oxoisochroman-3-ylidene)methyl)pyridin-1-ium Bromide], half-maximal inhibition (IC50) required 0.422 ± 0.00592 µM.

Molecule `COc1cc2c(cc1OC)C(=O)/C(=C/c1cc[n+](Cc3ccccc3Br)cc1C(C)=O)OC2` [10h, (Z)-3-Acetyl-1-(2-bromobenzyl)-4-((6,7-dimethoxy-4-oxoisochroman-3-ylidene)methyl)pyridin-1-ium Bromide] yielded a half-maximal inhibitory concentration (IC50) of 0.00622 ± 5e-05 µM. This IC50 lies about 68-fold lower than the previous one.

Turning to `COc1cc2c(cc1OC)C(=O)/C(=C/c1cc[n+](Cc3ccccc3Br)cc1C(N)=O)OC2` [13h, (Z)-1-(2-Bromobenzyl)-3-carbamoyl-4-((6,7-dimethoxy-4-oxoisochroman-3-ylidene)methyl)pyridin-1-ium Bromide], half-maximal inhibition (IC50) was put at 0.0217 ± 0.00032 µM.

In the case of `COc1cc2c(cc1OC)C(=O)/C(=C/c1cc[n+](Cc3ccccc3Cl)cc1C(C)=O)OC2` [10e, (Z)-3-Acetyl-1-(2-chlorobenzyl)-4-((6,7-dimethoxy-4-oxoisochroman-3-ylidene)methyl)pyridin-1-ium Bromide], the IC50 came out at 0.00586 ± 0.00086 µM.

Regarding `COc1cc2c(cc1OC)C(=O)/C(=C/c1cc[n+](Cc3ccccc3C)cc1C(C)=O)OC2` [10k, (Z)-3-Acetyl-4-((6,7-dimethoxy-4-oxoisochroman-3-ylidene)methyl)-1-(2-methylbenzyl)pyridin-1-ium Bromide], it took 0.0048 ± 0.00026 µM to reach half-maximal inhibition (IC50).

In turn, `COc1cc2c(cc1OC)C(=O)/C(=C/c1cc[n+](Cc3ccc(C)cc3)cc1C(N)=O)OC2` [13m, (Z)-3-Carbamoyl-4-((6,7-dimethoxy-4-oxoisochroman-3-ylidene)methyl)-1-(4-methylbenzyl)pyridin-1-ium Bromide] came in with a 50% inhibitory concentration (IC50) of 0.04247 ± 0.00025 µM.

The molecule `COc1cc2c(cc1OC)C(=O)/C(=C/c1cc[n+](Cc3ccccc3)cc1C(N)=O)OC2` [13a, (Z)-1-Benzyl-3-carbamoyl-4-((6,7-dimethoxy-4-oxoisochroman-3-ylidene)methyl)pyridin-1-ium Bromide] gave an IC50 of 0.00863 ± 6e-05 µM.

For `COc1cc2c(cc1OC)C(=O)/C(=C/c1cc[n+](Cc3ccc(F)cc3)cc1C(N)=O)OC2` [13d, (Z)-3-Carbamoyl-4-((6,7-dimethoxy-4-oxoisochroman-3-ylidene)methyl)-1-(4-fluorobenzyl)pyridin-1-ium Bromide], the IC50 is 0.00825 ± 0.00013 µM.

`COc1cc2c(cc1OC)C(=O)/C(=C/c1cc[n+](Cc3ccc(Cl)cc3)cc1C(N)=O)OC2` [13g, (Z)-3-Carbamoyl-1-(4-chlorobenzyl)-4-((6,7-dimethoxy-4-oxoisochroman-3-ylidene)methyl)pyridin-1-ium Bromide] showed an IC50 of 0.188 ± 0.00478 µM.

Molecule `COc1cc2c(cc1OC)C(=O)/C(=C/c1cc[n+](Cc3ccccc3Cl)cc1C(N)=O)OC2` [13e, (Z)-3-Carbamoyl-1-(2-chlorobenzyl)-4-((6,7-dimethoxy-4-oxoisochroman-3-ylidene)methyl)pyridin-1-ium Bromide] registered an IC50 of 0.0176 ± 0.0003 µM. This IC50 is about 11-fold lower than that of the molecule before.

With `COc1cc2c(cc1OC)C(=O)/C(=C/c1cc[n+](Cc3ccccc3[N+](=O)[O-])cc1C(C)=O)OC2` [10n, (Z)-3-Acetyl-4-((6,7-dimethoxy-4-oxoisochroman-3-ylidene)methyl)-1-(2-nitrobenzyl)pyridin-1-ium Bromide], the IC50 worked out at 0.0136 ± 0.00072 µM.

`COc1cc2c(cc1OC)C(=O)/C(=C/c1cc[n+](Cc3cccc(C)c3)cc1C(N)=O)OC2` [13l, (Z)-3-Carbamoyl-4-((6,7-dimethoxy-4-oxoisochroman-3-ylidene)methyl)-1-(3-methylbenzyl)pyridin-1-ium Bromide] showed an IC50 of 0.01626 ± 0.00012 µM.

These data come from paper PMC9145193 (Molecules, 2022).
